Structures can show the parent of a compound that is named as a salt. Where two headings read alike, the source gives them in different places.
Key:
EGFR L858R/T790M = EGFR L858R/T790M (Homo sapiens (Human), UniProt P00533, L858R/T790M); assay: HTRF-based EGFR biochemical assay (L858R/T790M); settings: 100 μM ATP, enzyme 0.02 nM
Description: (§1) Example 25: HTRF-Based EGFR Biochemical Assays
(§2) EGFR biochemical activity measurements were carried out using the homogeneous time-resolved fluorescence (HTRF) assay (Cisbio), inhibitors and DMSO normalizations were first dispensed to empty black low-volume 384-well plates (Corning) with 0300 digital liquid dispenser (HP). All reactions were carried out at room temperature and solutions were added to plates with a Multidrop Combi Reagent Dispenser (ThermoFisher). The reaction mixture (10 μL final volume) contained 1 μM tyrosine kinase peptide-biotin substrate and mutant EGFR in a reaction buffer (50 mM HEPES pH 7.0, 5 mM MgCl2, 1 mM MnCl2, 0.01% BSA, 2 mM TCEP, 0.1 mM NaVO4). Enzyme concentrations were adjusted to accommodate varying kinase activities (L858R 0.1 nM, L858R/T790M 0.02 nM). Enzyme reaction solution (2× concentrations, 5 μL) was added to 384-well plates containing compounds and incubated for 30 mins. Enzyme reactions were initiated with the addition of 5 μL of ATP to a final concentration of 100 μM and reacted for 20 mins. Reactions were quenched with the addition of 10 μL of phospho-tyrosine antibody-Europium(III) cryptate (1-to-180 volume ratio) and Streptavidin-XL665 (46.7 nM) in EDTA-containing detection buffer, then incubated at room temperature for 1 hour, and read with a PHERAstar plate reader (excitation=337 nm, emission=620 nm and 665 nm).

EGFR L858R = EGFR L858R (Homo sapiens (Human), UniProt P00533, L858R); assay: HTRF-based EGFR biochemical assay (L858R); settings: 100 μM ATP, enzyme 0.1 nM
Chain of EGFR L858R (P00533 25-1210 L858R): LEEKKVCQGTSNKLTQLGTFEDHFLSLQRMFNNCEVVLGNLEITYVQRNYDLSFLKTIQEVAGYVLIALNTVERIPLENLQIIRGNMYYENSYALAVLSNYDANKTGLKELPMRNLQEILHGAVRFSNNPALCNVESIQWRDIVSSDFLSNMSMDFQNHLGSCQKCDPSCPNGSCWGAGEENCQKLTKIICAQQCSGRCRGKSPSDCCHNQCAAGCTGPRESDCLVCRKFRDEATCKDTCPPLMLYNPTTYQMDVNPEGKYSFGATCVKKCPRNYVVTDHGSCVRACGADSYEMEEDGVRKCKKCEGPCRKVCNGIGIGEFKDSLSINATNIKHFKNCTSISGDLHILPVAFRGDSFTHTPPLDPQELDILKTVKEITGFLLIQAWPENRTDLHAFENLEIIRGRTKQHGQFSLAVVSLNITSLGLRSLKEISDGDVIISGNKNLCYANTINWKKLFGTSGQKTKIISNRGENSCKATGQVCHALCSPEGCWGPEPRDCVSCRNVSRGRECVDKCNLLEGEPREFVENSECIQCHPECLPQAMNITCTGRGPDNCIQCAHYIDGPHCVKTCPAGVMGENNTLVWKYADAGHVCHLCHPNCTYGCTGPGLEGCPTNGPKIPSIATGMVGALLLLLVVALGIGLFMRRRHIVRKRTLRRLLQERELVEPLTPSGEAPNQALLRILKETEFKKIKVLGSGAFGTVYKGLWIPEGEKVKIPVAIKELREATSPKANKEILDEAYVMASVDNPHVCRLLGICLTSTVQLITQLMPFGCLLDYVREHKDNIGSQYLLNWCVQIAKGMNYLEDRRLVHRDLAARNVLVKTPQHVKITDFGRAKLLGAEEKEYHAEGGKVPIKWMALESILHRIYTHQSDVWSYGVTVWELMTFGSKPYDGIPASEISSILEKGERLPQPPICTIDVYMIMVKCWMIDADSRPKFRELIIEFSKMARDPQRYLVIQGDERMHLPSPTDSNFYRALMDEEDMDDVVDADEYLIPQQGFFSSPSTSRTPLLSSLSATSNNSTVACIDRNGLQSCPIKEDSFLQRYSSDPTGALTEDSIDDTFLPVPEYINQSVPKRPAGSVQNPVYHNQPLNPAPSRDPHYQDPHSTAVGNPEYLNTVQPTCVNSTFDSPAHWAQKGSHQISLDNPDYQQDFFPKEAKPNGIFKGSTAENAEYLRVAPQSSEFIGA
Description: as §1, §2

[1] = tested on: EGFR mutant L858R/T790M Ba/F3 cells; assay: Ba/F3 cell proliferation model (Cell Titer Glo), EGFR L858R/T790M; assay type: cell-based, murine; settings: 72 hours
Description: Example 26: Ba/F3 Cell Proliferation Models
The EGFR mutant L858R and L858R/T790M Ba/F3 cells have been previously described (Zhou, W., et al. Nature 462, 2009, 1070-1074). All cell lines were maintained in RPM 1640 (Cellgro; Mediatech Inc., Herndon. CA) supplemented with 10% FBS, 100 units/mL penicillin, 100 units/mL streptomycin. The EGFR I941R mutation was introduced via site directed mutagenesis using the Quick Change Site-Directed Mutagenesis kit (Stratagene; La Jolla, CA) according to the manufacturer's instructions. All constructs were confirmed by DNA sequencing. The constructs were shuttled into the retroviral vector JP1540 using the Cre-recombination system (Agilent Technologies, Santa Clara, CA). Ba/F3 cells were then infected with retrovirus per standard protocols, as described previously (Zhou, et al, Nature 2009). Stable clones were obtained by selection in puromycin (2 μg/ml).
Growth and inhibition of growth was assessed by the Cell Titer Glo® assay (Promega, Madison, WI) and was performed according to the manufacturer's instructions. The Cell Titer Glo® assay is a luminescence-based method used to determine the number of viable cells based on quantitation of the ATP present, which is directly proportional to the amount of metabolically active cells present. Ba/F3 cells of different EGFR genotypes were exposed to compounds as a single agent or in combination with 1 μg/mL cetuximab for 72 hours and the number of cells used per experiment was determined empirically as has been previously established (Zhou, et al., Nature 2009). All experimental points were set up in triplicates in 384-well plates and all experiments were repeated at least three times. […] The curves were fitted using a non-linear regression model with a sigmoidal dose response.

[2] = Mus musculus, BaF3, single agent, read-out: Cell IC50 BaF3 EGFR L858R/T790M
[3] = in combination with 1 μg/mL cetuximab, read-out: Cell IC50 BaF3 EGFR L858R/T790M (+cetux.)

Chain of EGFR L858R/T790M (P00533 25-1210 T790M/L858R): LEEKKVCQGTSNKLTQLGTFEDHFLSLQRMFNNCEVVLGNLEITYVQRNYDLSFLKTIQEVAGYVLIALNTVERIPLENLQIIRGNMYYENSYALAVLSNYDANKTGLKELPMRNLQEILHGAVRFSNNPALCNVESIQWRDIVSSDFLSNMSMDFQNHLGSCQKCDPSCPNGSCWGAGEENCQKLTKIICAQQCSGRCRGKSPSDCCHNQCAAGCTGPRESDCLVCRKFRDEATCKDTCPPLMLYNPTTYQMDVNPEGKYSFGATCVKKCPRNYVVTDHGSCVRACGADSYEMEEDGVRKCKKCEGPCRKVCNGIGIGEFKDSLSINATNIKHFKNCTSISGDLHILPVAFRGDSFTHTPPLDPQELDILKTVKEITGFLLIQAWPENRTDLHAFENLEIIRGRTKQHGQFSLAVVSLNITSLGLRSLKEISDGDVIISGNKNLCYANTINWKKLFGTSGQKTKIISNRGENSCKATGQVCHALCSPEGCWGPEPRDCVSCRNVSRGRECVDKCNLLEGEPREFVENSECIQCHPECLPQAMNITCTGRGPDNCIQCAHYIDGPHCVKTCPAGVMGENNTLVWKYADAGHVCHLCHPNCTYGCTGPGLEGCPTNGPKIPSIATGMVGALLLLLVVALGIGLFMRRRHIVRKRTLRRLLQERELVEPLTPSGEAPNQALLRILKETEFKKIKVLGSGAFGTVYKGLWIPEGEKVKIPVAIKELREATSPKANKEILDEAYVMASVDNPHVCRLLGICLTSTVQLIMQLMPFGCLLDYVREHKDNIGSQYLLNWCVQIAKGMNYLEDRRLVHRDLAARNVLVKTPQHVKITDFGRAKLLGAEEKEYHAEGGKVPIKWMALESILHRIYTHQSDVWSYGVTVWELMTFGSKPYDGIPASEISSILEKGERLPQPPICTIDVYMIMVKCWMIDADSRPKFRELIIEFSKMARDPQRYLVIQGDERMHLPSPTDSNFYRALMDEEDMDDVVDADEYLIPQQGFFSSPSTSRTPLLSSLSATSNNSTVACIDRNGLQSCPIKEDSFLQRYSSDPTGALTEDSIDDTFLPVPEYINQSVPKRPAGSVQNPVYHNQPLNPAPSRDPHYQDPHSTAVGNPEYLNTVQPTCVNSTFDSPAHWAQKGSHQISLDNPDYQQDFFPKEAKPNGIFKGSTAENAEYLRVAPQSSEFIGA

SMILES	IC50 (EGFR L858R/T790M)	IC50 (EGFR L858R)	IC50 [1, 2]	IC50 [1, 3]
Nc1ccc(C#Cc2ccc3c(c2)C(=O)N(C(c2nc4ccccc4[nH]2)c2cc(F)ccc2O)C3)cn1 (stereo not shown) [Compound 012, 6-[2-(6-Amino-3-pyridyl)ethynyl]-2-[1H-benzimidazol-2-yl-(5-fluoro-2-hydroxy-phenyl)methyl]isoindolin-1-one]	6 nM	48 nM	620 nM	10 nM
CN1CCC(c2ccc(-c3ccc4c(c3)C(=O)N(C(c3nc5cncnc5[nH]3)c3cc(F)ccc3O)C4)cc2)CC1 (stereo not shown) [Compound 018, 2-[(5-Fluoro-2-hydroxy-phenyl)-(9H-purin-8-yl)methyl]-6-[4-(1-methyl-4-piperidyl)phenyl]isoindoiin-1-one; hydrochloride]	5 nM	9 nM	3490 nM	20 nM
CN1CCC(c2ccc(-c3ccc4c(c3)C(=O)N(C(c3nc5cc(F)ccc5[nH]3)c3cc(F)ccc3O)C4)cc2)CC1 (stereo not shown) [Compound 046, 2-[(5-fluoro-1H-benzimidazol-2-yl)-(5-fluoro-2-hydroxy-phenyl)-methyl]-6-[4-(1-methyl-4-piperidyl)phenyl]isoindolin-1-one; formic acid]	0.7 nM	4 nM	860 nM	20 nM
Cc1c(-c2ccc(C3CCN(C)CC3)cc2)ccc2ncn(C(c3nc4ccccc4[nH]3)c3cc(F)ccc3O)c(=O)c12 (stereo not shown) [Compound 055, 3-[1H-benzimidazol-2-yl-(5-fluoro-2-hydroxy-phenyl)-methyl]-5-methyl-6-[4-(1-methyl-4-piperidyl)phenyl]-quinazolin-4-one; dihydrochloride]	1 nM	2 nM	100 nM	10 nM
O=C1c2cc(-c3ccc(N4CCOCC4)cc3)ccc2CN1C(c1nc2ccccc2[nH]1)c1cc(F)ccc1O (stereo not shown) [Compound 059, 2-(1H-benzimidazol-2-yl-(5-fluoro-2-hydroxy-phenyl)-methyl]-6-(4-morpholinopheny)-isoindolin-1-one; hydrochloride]	13 nM	> 100 nM	790 nM	10 nM
CN1CCC(c2ccc(-c3ccc4c(c3)C(=O)N(C(c3nc5c(Cl)cccc5[nH]3)c3cc(F)ccc3O)C4)cc2)CC1 (stereo not shown) [Compound 047, 2-[(4-chloro-1H-benzimidazol-2-yl)-(5-fluoro-2-hydroxy-phenyl)-methyl]-6-[4-(1-methyl-4-piperidyl)phenyl]isoindolin-1-one; formic acid]	2 nM	14 nM	1840 nM	80 nM
CN1CCC(c2ccc(-c3ccc4ncn(C(c5cccc(F)c5)c5nc6ccccc6[nH]5)c(=O)c4c3F)cc2)CC1 (stereo not shown) [Compound 005, 3-((1H-Benzo[d]imidazol-2-yl)(3-fluorophenyl)methyl)-5-fluoro-6-(4-(1-methylpiperidin-4-yl)phenyl)-quinazolin-4(3H)-one 2,2,2-trifluoroacetate]	1 nM	8 nM	1220 nM	20 nM
CN1CCC(c2ccc(-c3ccc4ncn(C(c5ccccc5)c5nc6ccccc6[nH]5)c(=O)c4c3F)cc2)CC1 (stereo not shown) [Compound 003, 3-((1H-Benzo[d]imidazol-2-yl)(phenyl)methyl)-5-fluoro-6-(4-(1-methylpiperidin-4-yl)phenyl)quinazolin-4(3H)-one 2,2,2-trifluoroacetate]	2 nM	9 nM	1400 nM	50 nM
CN1CCC(c2ccc(-c3ccc4c(F)cn(C(c5nc6ccccc6[nH]5)c5cc(F)ccc5O)c(=O)c4c3)cc2)CC1 (stereo not shown) [Compound 054, 2-[1H-benzimidazol-2-yl-(5-fluoro-2-hydroxy-phenyl)-methyl]-4-fluoro-7-[4-(1-methy-4-piperidyl)phenyl]isoquinolin-1-one]	0.4 nM	2 nM	1060 nM	20 nM
CN1CCC(c2ccc(-c3ccc4c(c3F)C(=O)N(C(c3nc5c(F)cccc5[nH]3)c3cc(F)ccc3O)C4)cc2F)CC1 (stereo not shown) [Compound 081, 7-fluoro-2-[(4-fluoro-1H-benzimidazol-2-yl)-(5-fluoro-2-hydroxy-phenyl)methyl]-6-[3-fluoro-4-(1-methyl-4-piperidyl)phenyl]isoindolin-1-one; dihydrochloride]	0.8 nM	6 nM	210 nM	–
CN1CCC(c2ccc(-c3ccc4c(c3)C(=O)N(C(c3nc5ccccc5[nH]3)c3cccc(F)c3O)C4)cc2)CC1 (stereo not shown) [Compound 042, 2-[1H-benzimidazol-2-yl-(3-fluoro-2-hydroxy-phenyl)-methyl]-6-[4-(1-methyl-4-piperidyl)phenyl]isoindolin-1-one; dihydrochloride]	13 nM	31 nM	4000 nM	240 nM
CN1CCC(c2ccc(-c3ccc4c(=O)n([C@H](c5nc6ccccc6[nH]5)c5cc(F)ccc5O)ccc4c3)cc2)CC1 (single isomer, unassigned) [Compound 115]	157 nM	132 nM	–	–
CN1CCC(c2ccc(-c3cc4nn(C(c5nc6ccccc6[nH]5)c5cc(F)ccc5O)cc4cc3O)cc2)CC1 (stereo not shown) [Compound 097, 2-[1H-Benzimidazol-2-yl-(5-fluoro-2-hydroxy-phenyl)methyl]-6-[4-(1-methyl-4-piperidyl)phenyl]indazol-5-ol]	36 nM	16 nM	–	–
CN1CCC(c2ccc(-c3ccc4c(c3)C(=O)N([C@H](c3nc5ccccc5[nH]3)c3cc(F)ccc3O)C4)cc2)CC1 (single isomer, unassigned) [Compound 037]	0.5 nM	1.4 nM	–	–
CN1CCC(c2ccc(-c3ccc4c(=O)n([C@@H](c5nc6ccccc6[nH]5)c5cc(F)ccc5O)ccc4c3)cc2)CC1 (single isomer, unassigned) [Compound 114]	0.9 nM	2 nM	–	–
CN1CCC(c2ccc(-c3cc(F)c4c(=O)n([C@H](c5nc6ccccc6[nH]5)c5cc(F)ccc5O)ccc4c3)cc2)CC1 (single isomer, unassigned) [Compound 066]	3 nM	14 nM	–	–
CN1CCC(c2ccc(-c3cc(F)c4c(=O)n(C(c5nc6ccccc6[nH]5)c5cc(F)ccc5O)ccc4c3)cc2F)CC1 (stereo not shown) [Compound 111, 2-[1H-Benzimidazol-2-yl-(5-fluoro-2-hydroxy-phenyl)methyl]-8-fluoro-6-[3-fluoro-4-(1-methyl-4-piperidyl)-phenyl]isoquinolin-1-one; dihydrochloride]	0.6 nM	3 nM	–	–
CN1CCC(c2ccc(-c3ccc4c(=O)n([C@H](c5nc6ccccc6[nH]5)c5cc(F)ccc5O)ccc4c3)cc2)CC1 (single isomer, unassigned) [Compound 068]	166 nM	756 nM	–	–
CN1CCC2(c3ccc(-c4cc(F)c5c(=O)n(C(c6nc7ccccc7[nH]6)c6cc(F)ccc6O)ccc5c4)cc3)CC2C1 (stereo not shown) [Compound 110, 2-[1H-Benzimidazol-2-yl-(5-fluoro-2-hydroxy-phenyl)methyl]-8-fluoro-6-4-(3-methyl-3-azabicyclo[4.1.0]-heptan-6-yl)phenyl]isoquinolin-1-one; dihydrochloride]	0.6 nM	3 nM	–	–
CN1CCC(c2ccc(-c3ccc4c(=O)n(C(c5nc6ccccc6[nH]5)c5cc(F)ccc5O)ccc4c3)cc2F)CC1 (stereo not shown) [Compound 109, 2-[1H-Benzimidazol-2-yl-(5-fluoro-2-hydroxy-phenyl)methyl]-6-[3-fluoro-4-(1-methyl-4-piperidyl)phenyl]isoquinolin-1-one; dihydrochloride]	2 nM	4 nM	–	–

Source: patent US12391671B2, “Allosteric EGFR inhibitors and methods of use thereof” (Dana-Farber Cancer Institute, Inc., priority 2019, dated 2025)
